The values that follow come from patent US20110206607A1, “IMIDAZOL (1,2-A)PYRIDINES AND RELATED COMPOUNDS WITH ACTIVITY AT CANNABINOID CB2 RECEPTORS” (priority 2007, published 2011).

T1 sequence (P34972 whole entry): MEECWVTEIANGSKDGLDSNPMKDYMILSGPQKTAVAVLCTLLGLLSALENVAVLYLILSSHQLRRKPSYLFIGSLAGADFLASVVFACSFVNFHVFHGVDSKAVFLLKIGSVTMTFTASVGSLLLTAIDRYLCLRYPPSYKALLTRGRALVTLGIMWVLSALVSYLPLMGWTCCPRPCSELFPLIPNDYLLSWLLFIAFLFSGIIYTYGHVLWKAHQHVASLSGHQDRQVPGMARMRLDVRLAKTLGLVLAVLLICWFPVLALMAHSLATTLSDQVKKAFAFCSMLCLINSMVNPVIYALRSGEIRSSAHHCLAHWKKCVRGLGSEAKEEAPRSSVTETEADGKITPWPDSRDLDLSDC

The assay addresses T1, human CB2 (Homo sapiens, UniProt P34972).
T1 construct: expressed in transfected cells; host or cells: HEK-293T (transient transfection, membrane preparation)
Nature of the assay: CB2 receptor binding assay, block of [3H]-CP 55,940 binding. The note with it: membranes of HEK-293T cells transfected with human CB2 cDNA; 1.5 nM [3H]-CP 55,940. Here is the method: Membrane preparation—HEK-293T cells were cultured according to ATCC (Manassas, Va.) guidelines and transfected with human CB2 cDNA (SEQ ID NO:1) (Genbank X74328), operably linked to the SV40 promoter, using Polyfect (Qiagen, Valencia, Calif.) or Fugene (Roche, Nutley, N.J.) according to manufacturer's instructions. 48 h after transfection cells were harvested in ice cold membrane buffer (20 mM HEPES, 6 mM MgCl2, 1 mM EDTA, pH 7.2) using a cell scraper. Cells were transferred to a nitrogen cavitation chamber and a pressure of […] was applied for 30 min. The pressure was released and the cell debris was collected and centrifuged at 1000 g at 4° C. for 10 min. The supernatant was collected and the spin was repeated until the supernatant was free of precipitate. Membranes were then pelleted by centrifugation at 12.000 g at 4° C. for 20 min. Membranes were resuspended in an appropriate amount of membrane buffer. The membrane concentration was determined using a BioRad (Hercules, Calif.) protein assay dye reagent according to manufacturer's instructions. Membranes were diluted to 1 mg/ml and aliquots snap-frozen in liquid nitrogen and store at −80° C.
Binding assay—0.5-10 ng of membranes were incubated in binding buffer (50 mM Tris, 0.5 mM EDTA, 0.1% BSA, pH 7.4) in the presence of 1.5 nM radioligand ([^3H]-CP 55,940 Perkin Elmer) and varying concentrations of ligands (total volume 100 μL in a 96 well plate). Membranes were filtered onto a 96 well GF/B filterplate (Packard Bioscience, Shelton, Conn.) and washed with […] wash buffer (25 mM HEPES, 1 mM CaCl2, 5 mM MgCl2, 0.25M NaCl) using a Filtermate 196 Harvester (Packard Instruments, Downers Grove, Ill.). The filter plates were dried under a heat lamp before addition of 50 μL of scintillation fluid to each well (Microscint 20, Packard, Shelton, Conn.). Plates were counted on a Topcount NXT (Packard, Shelton, Conn.).
Data Analysis—Graphs were plotted and KD values were determined by nonlinear regression analysis using Prism software (GraphPad version 4.0, San Diego, Calif., USA).
Take `COc1cccc2nc(-c3c(F)cc(O)cc3Cl)c(Nc3ccc4c(c3)OCCO4)n12` [CR-138]: the pKi was determined as 8.3.

Regarding `COc1cccc(OC)c1-c1nc2ccncn2c1Nc1ccc2c(c1)OCCO2` [CR-90], the pKi came out at 5.6.

Take `CCC(C)Oc1cccc2nc(-c3c(F)cccc3Cl)c(Nc3ccc4c(c3)OCCO4)n12` (stereo not shown) [CR-62]: the pKi amounted to 7.0.

On to `CC(C)Oc1cccc2nc(-c3c(F)cccc3Cl)c(Nc3ccc4c(c3)OCCO4)n12` [CR-29], for which the pKi is given as 7.9.

As for `C=COc1ccc2nc(-c3c(F)cccc3Cl)c(Nc3ccc4c(c3)OCCO4)n2c1` [CR-30], the pKi is given as 7.8.

Molecule `CNc1cccc2nc(-c3c(F)cccc3Cl)c(Nc3ccc4c(c3)OCCO4)n12` [CR-43] had a pKi of 7.5.

Consider `Cc1ccc2nc(-c3c(F)cccc3Cl)c(Nc3ccc4c(c3)OCCO4)n2c1` [CR-42], for which the pKi is reported as 7.5.

As for `COc1cnc2nc(-c3c(F)cncc3F)c(Nc3ccc4c(c3)OCCO4)n2c1` [CR-137], the pKi stood at 6.5.

As for `Fc1cccc(Cl)c1-c1nc2cccc(C(F)(F)F)n2c1Nc1ccc2c(c1)OCCO2` [CR-122], the pKi is 6.0.

`COc1cc(-c2nc3cccc(C)n3c2Nc2ccc3c(c2)OCCO3)ccc1O` [CR-97] came in with a pKi of 6.5.

The molecule `FCCOc1ccc2nc(-c3c(F)cccc3Cl)c(Nc3ccc4c(c3)OCCO4)n2c1` [CR-41] registered a pKi of 7.5.

Molecule `Cc1cccc(C)c1-c1nc2ncccn2c1Nc1ccc2c(c1)OCCO2` [CR-74] gave a pKi of 6.8.

As to `COc1cccc(OC)c1-c1nc2cccc(C)n2c1Nc1ccc2c(c1)OCCO2` [CR-114], the pKi came to 6.3.

`COc1cc(-c2nc3cnccn3c2Nc2ccc3c(c2)OCCO3)cc(F)c1O` [CR-91] had a negative logarithm of the Ki (pKi) of 6.6.

The molecule `COc1cnc2nc(-c3c(F)cccc3Cl)c(Nc3ccc4c(c3)OCCO4)n2c1` [CR-31] came in with a pKi of 7.8.

`Fc1ccc2nc(-c3c(F)cccc3Cl)c(Nc3ccc4c(c3)OCCO4)n2c1` [CR-40] returned a pKi of 7.5.

Molecule `Cc1ccc2nc(-c3cccc(F)n3)c(Nc3ccc4c(c3)OCCO4)n2c1` [CR-59] registered a negative-log Ki (pKi) of 7.1.

Take `Fc1cccnc1-c1nc2cnccn2c1Nc1ccc2c(c1)OCCO2` [CR-76]: the pKi is recorded as 5.2.

Turning to `COc1cccc2nc(-c3c(F)cc(O)cc3F)c(Nc3ccc4c(c3)OCCO4)n12` [CR-15], the pKi is 8.6.

For the molecule `COc1cccc2nc(-c3c(C)cc(OC[18F])cc3C)c(Nc3ccc4c(c3)OCCO4)n12` [CR-136], the negative logarithm of the Ki (pKi) is listed as 9.5.

Regarding `FCCOc1cccc2nc(-c3c(F)cccc3Cl)c(Nc3ccc4c(c3)OCCO4)n12` [CR-37], the pKi is 7.7.

Molecule `COc1ccnc2nc(-c3c(F)cc(OCCF)cc3F)c(Nc3ccc4c(c3)OCCO4)n12` [CR-61] displayed a pKi of 7.0.

With `Oc1cc(Cl)c(-c2nc3cccc(OCCF)n3c2Nc2ccc3c(c2)OCCO3)c(Cl)c1` [CR-35], the negative-log Ki (pKi) was 7.8.

In turn, `Fc1cccc(Cl)c1-c1nc2ccccn2c1Nc1ccc2c(c1)OCO2` [CR-128] gave a pKi of 6.7.

`COc1cc(-c2nc3ncccn3c2Nc2ccc3c(c2)OCCO3)ccc1O` [CR-70] showed a pKi of 6.8.

Molecule `Fc1cccc(Cl)c1-c1nc2ccccn2c1Nc1ccc2c(c1)OCCO2` [CR-38] had a pKi of 7.7.

For `Clc1cncc(Cl)c1-c1nc2ccccn2c1Nc1ccc2c(c1)OCCO2` [CR-64], the pKi is reported as 7.0.

Take `Fc1cccc(-c2nc3ccccn3c2Nc2ccc3c(c2)OCCO3)n1` [CR-63]: the pKi came to 7.0.

In the case of `Cc1cccc2nc(-c3c(Cl)cccc3Cl)c(Nc3ccc4c(c3)OCCO4)n12` [CR-32], the pKi worked out at 7.8.

`COc1cccc(OC)c1-c1nc2ccccn2c1Nc1ccc2c(c1)OCCO2` [CR-116]: the negative-log Ki (pKi) came out at 6.2.

Turning to `Cc1ccn2c(Nc3ccc4c(c3)OCCO4)c(-c3ccc(F)nc3)nc2c1` [CR-54], the pKi amounted to 5.2.

As to `COc1cccc2nc(-c3c(F)cccc3F)c(Nc3ccc4c(c3)OCCO4)n12` [CR-19], the pKi is 8.4.

`Cc1ccn2c(Nc3ccc4c(c3)OCCO4)c(-c3c(Cl)cccc3Cl)nc2c1` [CR-68] showed a pKi of 6.9.

`COc1cccc2nc(-c3c(F)ccc(OCCF)c3F)c(Nc3ccc4c(c3)OCCO4)n12` [CR-12] yielded a pKi of 8.8.

`COc1cccc(OC)c1-c1nc2cc(C)ccn2c1Nc1ccc2c(c1)OCCO2` [CR-126]: the pKi is listed as 5.9.

In turn, `COc1cccc(OC)c1-c1nc2c(C)cccn2c1Nc1ccc2c(c1)OCCO2` [CR-123] had a pKi of 6.0.

On to `COc1cccc(OC)c1-c1nc2ccc(C)cn2c1Nc1ccc2c(c1)OCCO2` [CR-100], for which the negative-log Ki (pKi) is recorded as 6.5.

What is called pKi is −log10 of the Ki, conventionally taken in molar units.
